Data reported in paper PMC6733504, “Effects of flavoring compounds used in electronic cigarette refill liquids on endothelial and vascular function” (PLoS ONE, 2019).
Read-outs that look alike come from different tables or passages of the source.

Columns and labels:
[1] = Electrochemical determination of NO released from DEA/NO (NO scavenging); settings: DEA/NO 1 μM
Experimental: Scavenging of NO by flavoring compounds was studied with a nitric oxide sensor (ISO-NOP, World Precision Instruments, Berlin, Germany), calibrated with acidified nitrite as described previously. Free NO radical was generated by incubation of DEA/NO (1 μM) in 1 ml of 100 mM phosphate buffer, pH 7.4, in the absence or presence of superoxide dismutase (2500 U/ml) at ambient temperature. At the peak concentration of NO, flavoring compounds (10 μl of DSMO stock solutions) were added, DMSO served as vehicle control.

[2] = test system: endothelial cells; assay: MTT to formazan conversion (viability); assay type: cell-based, porcine; settings: 1 mM, 60 minutes
Experimental: The viability of endothelial cells was judged by incubation with 1 mM of the flavoring compounds, followed by determination of 3-(4,5-dimethyl-2-thiazolyl)-2,5-diphenyltetrazolium bromide (MTT) to formazan conversion using the Cayman MTT Cell Proliferation Assay Kit purchased through VWR International (Vienna, Austria).

[3] = biological target: T1, soluble guanylate cyclase (sGC) (Bos taurus, UniProt P16068+P19687); assay: Activity of purified sGC stimulated with DEA/NO; assay type: biochemical, bovine; settings: for Emax of DEA/NO-stimulated sGC activity in presence of flavoring: flavoring 1 mM, DEA/NO 0.01–10 μM
T1 construct: The activity of sGC purified from bovine lung; from tissue; host or cells: bovine lung
T1 sequence (P19687 1-691): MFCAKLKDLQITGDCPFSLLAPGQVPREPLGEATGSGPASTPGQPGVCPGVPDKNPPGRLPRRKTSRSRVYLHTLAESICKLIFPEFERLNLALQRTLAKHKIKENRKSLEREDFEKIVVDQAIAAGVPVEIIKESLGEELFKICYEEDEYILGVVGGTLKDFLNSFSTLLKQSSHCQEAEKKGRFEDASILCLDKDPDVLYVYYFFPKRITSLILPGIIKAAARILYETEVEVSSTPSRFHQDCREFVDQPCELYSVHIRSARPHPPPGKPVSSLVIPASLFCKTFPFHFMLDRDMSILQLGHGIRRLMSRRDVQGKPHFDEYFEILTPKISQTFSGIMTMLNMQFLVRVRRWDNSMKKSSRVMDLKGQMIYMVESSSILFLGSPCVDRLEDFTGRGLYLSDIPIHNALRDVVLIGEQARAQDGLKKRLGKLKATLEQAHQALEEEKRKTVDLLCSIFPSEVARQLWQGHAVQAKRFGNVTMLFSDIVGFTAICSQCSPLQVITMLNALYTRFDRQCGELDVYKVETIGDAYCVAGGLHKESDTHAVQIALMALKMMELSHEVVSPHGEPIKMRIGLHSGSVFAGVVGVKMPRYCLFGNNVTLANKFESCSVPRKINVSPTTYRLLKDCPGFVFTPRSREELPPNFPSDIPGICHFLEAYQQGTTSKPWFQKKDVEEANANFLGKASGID
T1 sequence (P16068 1-619): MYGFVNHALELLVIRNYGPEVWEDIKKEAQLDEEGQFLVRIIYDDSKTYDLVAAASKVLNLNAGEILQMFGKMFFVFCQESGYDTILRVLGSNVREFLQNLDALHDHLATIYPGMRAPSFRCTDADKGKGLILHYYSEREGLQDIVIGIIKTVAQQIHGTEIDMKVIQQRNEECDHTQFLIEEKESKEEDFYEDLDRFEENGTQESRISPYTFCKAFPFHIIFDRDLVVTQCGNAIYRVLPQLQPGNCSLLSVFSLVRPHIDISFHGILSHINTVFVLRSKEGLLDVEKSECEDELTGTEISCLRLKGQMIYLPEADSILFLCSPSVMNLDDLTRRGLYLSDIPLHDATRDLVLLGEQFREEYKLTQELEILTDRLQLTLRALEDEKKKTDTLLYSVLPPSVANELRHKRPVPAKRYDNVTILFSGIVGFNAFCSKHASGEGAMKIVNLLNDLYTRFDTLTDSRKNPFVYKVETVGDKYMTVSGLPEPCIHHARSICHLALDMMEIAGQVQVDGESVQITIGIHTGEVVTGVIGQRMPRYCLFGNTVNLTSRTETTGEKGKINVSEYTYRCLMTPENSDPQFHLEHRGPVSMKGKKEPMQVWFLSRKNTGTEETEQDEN
Experimental: The activity of sGC purified from bovine lung was determined as formation of [^32P]cGMP from [α-^32P]GTP. The purified enzyme (50 ng) was incubated at 37°C for 10 min in a final volume of 0.1 ml in the absence or presence of flavorings with the NO donor DEA/NO at concentrations indicated in the figure legends, followed by isolation of [^32P]cGMP and quantification of radioactivity (Cerenkov radiation) in a β counter.
To test for reversibility of inhibition, sGC (50 ng) was preincubated in the absence or presence of the respective compounds for 5 minutes at 37°C, followed by 50-fold dilution in the assay mixtures and incubation with DEA/NO at 37°C for 10 minutes.

[4] = test system: endothelial cells; assay: LDH release (membrane integrity); settings: 1 mM, 60 minutes; maximum = 1% Triton
Experimental: To test for membrane integrity, endothelial cells were assayed for release of lactate dehydrogenase (LDH) into the culture medium. Subsequent to incubation with flavoring compounds (1 mM each) for 1 hour, 20-μl aliquots of the culture media were mixed with 200 μl of reagent buffer (1 mM pyruvate and 0.1 mM NAD^+ in PBS). The decrease in light absorbance at 340 nm was monitored using a diode array spectrophotometer (Hewlett Packard 8452A). Maximum LDH release was determined by treating the cells with 1% Triton X-100.

[5] = test system: rat aortic rings; assay: Effect of flavorings on vascular tone of U-46619 precontracted aortic rings; settings: 95% CI; for EC50: Rattus norvegicus
Experimental: Unsexed Sprague-Dawley rats (obtained from Charles River, Sulzfeld, Germany) were housed at the local animal facility in approved cages. […] Animals were euthanized in a box that was gradually filled with CO2 until vital signs had ceased (cessation of respiration and circulation). Subsequently, the thorax of the animals was opened, the thoracic aorta was removed, cleaned from connective tissue and immediately used for assessment of vessel function.
After equilibration for 60 min at the optimal resting tension of 20 mN, maximal contractile activity was determined with a depolarizing solution containing 60 mM K^+. […] When contraction had reached a stable plateau (~after 20 min) cumulative concentration-response curves were established with flavorings. Where indicated, the effects of the flavorings on vascular tone were tested in the presence of the NOS inhibitor N^G-nitro-L-arginine methyl ester (L-NAME, 0.2 mM).
Concentration-response curves of different ring segments from a single animal were averaged and counted as an individual experiment.

[6] = test system: endothelium-denuded rat aortic rings; assay: cAMP and cGMP levels in endothelium-denuded aortic rings; settings: 10 µM
Excerpt: 1 S4 Table. […]
2 endothelium-denuded rat aortic rings.
Flavoring (fmol x mg-1) (fmol x mg-1)
4 En d o th e liu m-denuded rings, treated with test compounds as described in the
5 Materials and methods section of the main text, were freeze-clamped when maximal
6 relaxation had been reached. Rings were homogenized in 5% trichloroacetic acid
7 and analyzed for cAMP and cGMP by radioimmunoassay. Forskolin and DEA/NO
8 were used to induce maximal accumulation of cAMP and cGMP, respectively. Data
9 shown are mean values±SEM of 3 (forskolin and DEA/NO) or 6 (basal,
10 cinnamaldehyde and eugenol) rings; n.d., not determined, *p<0.05 vs. basal (ANOVA
11 and Dunnett's post hoc test).

[7] = rats, after intravenous cinnamaldehyde; cited from earlier work
[8] = test system: Porcine aortic endothelial cells (endogenous NO/cGMP pathway); assay: A23187 (Ca2+ ionophore)-induced endothelial cGMP formation; assay type: cell-based; settings: NNA 0.3 mM
Experimental: Porcine aortic endothelial cells were isolated as described and cultured at 37°C, 5% CO2 for up to 3 passages in Dulbecco´s modified Eagle´s medium, containing 10% heat-inactivated fetal calf serum (FCS), 100 U/ml penicillin, 0.1 mg/ml streptomycin, and 1.25 μg/ml amphotericin B. Prior to experiments, cells were subcultured into 24-well plates (determination of cGMP formation) or 6-well plates (determination of L-citrulline formation).
Accumulation of intracellular 3',5'-cyclic GMP (cGMP) was determined as previously described. Briefly, endothelial cells were washed and preincubated with the compounds to be tested for 15 minutes at 37°C in 50 mM Tris buffer, pH 7.4, containing 100 mM NaCl, 5 mM KCl, 1 mM MgCl2, 2.5 mM CaCl2, 1 mM 3-isobutyl-1-methylxanthine, and 1 μM indomethacin. Reactions were started by addition of the Ca^2+ ionophore A 23187 (final concentration 1 μM) or the NO donor DEA/NO (final concentration 1 μM) and terminated after 4 minutes by removal of the incubation medium and addition of 0.01 M HCl. Within 1 h, intracellular cGMP was completely released into the supernatant and measured by radioimmunoassay.

[9] = absence of L-NAME, read-out: EC50 of relaxation of pre-contracted vessels (Control)
[10] = presence of L-NAME 0.2 mM, read-out: EC50 of relaxation of pre-contracted vessels (L-NAME)

SMILES	Formazan formation (% of control) [2]	LDH release (% of maximum) [4]	Emax of DEA/NO-stimulated sGC activity in presence of flavoring [3] [µmol cGMP x min-1 x mg-1]	EC50 [5, 9] [µM]	EC50 [5, 10] [µM]	other results
CC(=O)C(C)=O [Diacetyl, Butane-2,3-dione]	95±4.6 % of control	0.6±0.03 % of maximum	–	–	–	Effect on recorded NO signal (NO scavenging) ([1]; 1 mM): only moderate effects; Effect on recorded NO signal (NO scavenging) ([1]; 10 mM): pronounced decrease; IC50 ([3]; DEA/NO 0.05 μM, 95% CI): 290 µM; EC50 of relaxation of pre-contracted vessels (Control) ([5]; absence of L-NAME): no effects below 10 mM
CC12CCC(CC1)C(C)(C)O2 [Eucalyptol, 1,3,3-Trimethyl-2-oxabicyclo[2.2.2]octane]	99±2.0 % of control	1.0±0.27 % of maximum	–	–	–	EC50 of relaxation of pre-contracted vessels (Control) ([5]; absence of L-NAME): no effects below 10 mM
CC1CCC(C(C)C)C(O)C1 (centres unmarked) [Menthol, 5-Methyl-2-(propan-2-yl)cyclohexan-1-ol]	100±2.9 % of control	0.8±0.03 % of maximum	28±0.4	1600	1400	–
Cc1cnc(C)cn1 [Dimethylpyrazine, 2,5-Dimethylpyrazine]	103±3.7 % of control	0.9±0.12 % of maximum	27±0.7	4200	5200	–
C=C[C@@]1(C)CC(=O)[C@]2(O)[C@@]3(C)[C@@H](O)CCC(C)(C)[C@@H]3[C@H](O)[C@H](OC(C)=O)[C@@]2(C)O1 [Forskolin, reference compound]	–	–	–	–	–	cAMP [6]: 9309±488 fmol x mg-1
CC(=O)OCCC(C)C [Isoamylacetate, 3-Methylbutyl acetate]	103±3.8 % of control	0.7±0.28 % of maximum	28±0.7	–	–	EC50 of relaxation of pre-contracted vessels (Control) ([5]; absence of L-NAME): no effects below 10 mM
O=C(O)/C=C/c1ccccc1 [cinnamic acid]	–	–	–	–	–	Biological half-life [7]: about 7 minutes
O=Cc1ccccc1 [Benzaldehyde, benzaldehyde]	–	–	–	2200	2500	–
N=C(NCCC[C@H](N)C(=O)O)N[N+](=O)[O-] [NNA, N^G-nitro-L-arginine, reference compound]	–	–	–	–	–	Effect on A23187-induced cGMP accumulation [8]: completely inhibited
COc1cc(C=O)ccc1O [Vanillin, 4-Hydroxy-3-methoxybenzaldehyde]	109±6.7 % of control	1.4±0.72 % of maximum	25±0.6	1700	1800	–
CC(=O)c1ccccn1 [Acetylpyridine, 1-(Pyridin-2-yl)ethan-1-one]	102±4.4 % of control	0.7±0.12 % of maximum	28±0.8	3700	5600	–
